Measured values published in US20140205566A1, “CYCLIC NUCLEUOSIDE DERIVATIVES AND USES THEREOF” (NOVARTIS AG, priority 2012, published 2014).
Where two headings read alike, the source gives them in different places.

Assays:
[1] = test system: dengue virus; assay: Dengue EC50 determination: PBMC infected with virus/humanized 4G2 antibody complex, plaque reduction assay using BHK cells; format: cell-based; conditions: M.O.I of 1, 48 hours, plaque reduction in BHK cells
Protocol: Cryopreserved PBMC (Peripheral Blood Mononuclear Cell) cells were purchased from AllCells, LLC in USA. The cells were then thawed according to manufacturer's instructions and re-suspended in RPMI medium supplemented with 1% penicillin/streptomycin solution and 10% Fetal Calf serum. The cells were then counted and viability checked (viability should be at least 80%). After centrifuging and removing the media, the cells were diluted to 1×10^7 cells/mL in RPMI medium supplemented with 1% penicillin/streptomycin. 50 μl of the cells were then dispensed into 96-well tissue culture plate resulting in 5×10^5 cells/well. Next, virus with humanized 4G2 mixture was prepared for infection. Briefly, virus (2×10^7 pfu/ml) was mixed with humanized 4G2 antibody with the final antibody concentration of 0.38 μg/ml and incubated for 30 minutes at 4° C. to assist virus/antibody complex formation. The virus-antibody complex was then added to the PBMC at multiplicity of infection (M.O.I) of 1. The mixture of cells, virus and antibody was then further incubated in the plates at 37° C. for an hour in the humidified incubator for virus attachment and infection to take place. Serial diluted compounds were then added to the final media volume of 200 μl with 2% Fetal Calf Serum (final PBMC concentration would be 2.5×10^6 cells/mL). The plates were then incubated at 37° C., 5% CO2 for another 48 hours. The extent of the infection and compound inhibition was measured by plaque reduction assay using BHK cells [RD-2004-80036]. Briefly, supernatants of BHK cells grown in 24-well tissue culture (seeded at 200,000 cells/well the night before) were removed and subjected to 200 μl of diluted supernatants derived from PBMC infection containing serial diluted compounds. After incubating it for 37° C. for 1 hour in the incubator, the supernatants were removed and BHK cells overlaid with RPMI media containing 0.8% methyl-cellulose, 0.5% DMSO, 0.05% sodium bicarbonate, 25 mM HEPES, 2% fetal bovine serum and 1% penicillin/streptomycin solution. After additional 4 days of incubation at 37° C. incubator, the monolayer of BHK cells were fixed with 4% paraformaldehyde, stained with crystal violet and plaques counted. The dose response (n=2) is calculated by Prism from Graphpad software using a mathematical curve fitting analysis called nonlinear regression with four independent parameters. Briefly, the software generates the best fit curve using the formula F(x)=((A−D)/(1+((x/C)̂B)))+D. In this formula, x represents the concentration of the compound, A is the minimum value, B represents the steepness of the curve (sometimes known as Hill slope), C is the inflection point and D is the maximum value. EC50 was estimated as the concentration of the compound which will inhibit 50% of the plaque formation. A positive control (7-deaza-2′-C-acetylene-adenosine) was used to ensure the quality of the data.

[2] = Liver S9 stability determination; format: in vitro ADME; conditions: human liver S9 fraction, 1 μM compound, 37° C., up to 120 mins, read-out: liver S9 t1/2
Text: The liver is the main organ of metabolism and contains a high concentration of drug metabolizing enzymes. Metabolic clearance, particularly hepatic, is one of the main determinants affecting systemic drug exposure following both oral and i.v. administration. To assess the ability of the compounds of the invention to reach a systemic circulation, the hepatic S9 fraction was chosen to test for stability of the compounds. Hepatic S9 fraction was obtained following centrifugation of homogenized liver tissue at 9,000 g. The hepatic S9 fraction is composed of both microsomal and cytosolic fractions and contains all the enzymes contained in microsomes plus additional phase I and phase II cytosolic enzymes.
Stock solutions of each tested compound (100 μM) were prepared in methanol by two subsequent 1:10 dilutions from 10 mM DMSO drug solutions, the final assay concentration was 1 μM. Frozen pooled liver S9 fraction was thawed from −20° C. and diluted in phosphate buffer (with and without NADPH) which was pre-warmed at 37° C. for 10 minutes. The reaction was initiated by addition of compound. Manual sample plates were incubated on a Thermo Max Q 2000 shaker placed in a temperature controlled Sartorius Certomat H hood set at 37° C. Sequential samples were removed at designated timepoints (0, 5, 15, 30, 60 and 120 mins) and quenched with 4 volumes of ice cold acetonitrile (containing internal standard, diazepam), centrifuged and supernatants reconstituted in water (acetonitrile:water, 50:50% v/v). Samples were then analyzed by LCMS/MS or LC-UV to assess parent depletion. In vitro half-life (t1/2) is calculated based on the rate of disappearance of compound from the reaction mixture at incubation timepoints up to 2 hours.

[3] = Stability in liver microsomes; format: in vitro ADME; conditions: human, read-out: liver microsomes t1/2
[4] = CCK8 cytotoxicity assay in THP-1 cells; format: cell-based; conditions: human, CCK-8
Protocol: 4 day cytotoxicity assay using THP-1 cells: THP-1 cells grown in suspension were counted and diluted to 8×10^4 cells/ml in RPMI-1640 media supplemented with 10% fetal bovine serum (FBS) and 1% penicillin/streptomycin. 25 ul of the THP-1 containing media consisting of 2000 cells were dispensed in 384-well tissue culture plate and pre-incubated at room temperature for 30 minutes, followed by 37° C., 5% CO2 overnight in the humidified incubator. On the next day, serial-diluted compound plates were prepared and 125 nl of compounds at various concentrations were then dispensed into the tissue culture well (200× dilution). The plates were then transferred to 37° C., 5% CO2 humidified incubator for additional 96 hours. Cytotoxicity was measured by CCK-8 assay. Briefly, CCK-8 was thawed on bench top and diluted 2.5× with the growth media. 35 ul of the pre-diluted CCK-8 was then introduced into each well and the plates were then further incubated in 37° C., 5% CO2 humidified incubator for 3 hours. The absorbance was read by Envision at 450 nm. Dose response curves were calculated as in the previous section (n=2). The CC50 is estimated as the concentration of the compound which will inhibit 50% of the signal. A positive control (puromycin) was used to ensure the quality of the data.

[5] = CCK8 cytotoxicity assay in HepG2 cells; format: cell-based; conditions: human, CCK-8
Protocol: HepG2 cells were trypsinized, washed, counted and diluted to 1.6×10^4 cells/ml in DMEM-W/O Glucose, supplemented with 10% Fetal bovine serum (FBS), 1% Penicillin/Streptomycin, 2 mM HEPES, 1 mM Sodium Pyruvate, 10 mM Galactose & 2 mM Glutamine. 25 μl of the media containing 400 cells per well were dispensed in clear 384-well tissue culture plate and incubated at room temperature for 30 minutes. The plate was then transferred and placed at 37° C., 5% CO2 humidified incubator overnight. On the next day, serial-diluted compound plates were prepared and 125 nl of compounds at various concentrations were then dispensed into the tissue culture well (200× dilution). The plates were then transferred to 37° C., 5% CO2 humidified incubator for additional 96 hours. Cytotoxicity was measured by CCK-8 assay. Briefly, CCK-8 was thawed on bench top and diluted 2.5× with the growth media. 35 ul of the pre-diluted CCK-8 was then introduced into each well and the plates were then further incubated in 37° C., 5% CO2 humidified incubator for 3 hours. The absorbance was read by Envision at 450 nm. Dose response curves were calculated as in the previous section. The CC50 is estimated as the concentration of the compound which will inhibit 50% of the signal. A positive control (puromycin) was used to ensure the quality of the data.

CCOC(=O)[C@H](C)N[P@@]1(=O)OC[C@H]2O[C@@H](n3cnc4c(N)nc(N)nc43)[C@](C)(F)[C@@H]2O1 [Comparative Example 1, (S)-Ethyl 2-(((2R,4aR,6R,7R,7aR)-6-(2,6-diamino-9H-purin-9-yl)-7-fluoro-7-methyl-2-oxidotetrahydro-4H-furo[3,2-d][1,3,2]dioxaphosphinin-2-yl)amino)propanoate, reference compound] gave an EC50 [1] of over 25 µM.
Work on CCOC(=O)[C@H](C)N[P@@]1(=O)OC[C@H]2O[C@@H](n3ccc(=O)[nH]c3=O)[C@](C)(F)[C@@H]2O1 [Comparative Example 2, (S)-ethyl 2-(((2R,4aR,6R,7R,7aR)-6-(2,4-dioxo-3,4-dihydropyrimidin-1(2H)-yl)-7-fluoro-7-methyl-2-oxidotetrahydro-4H-furo[3,2-d][1,3,2]dioxaphosphinin-2-yl)amino)propanoate, reference compound] yielded an EC50 [1] of over 25 µM.
CCOc1nc(N)nc2c1ncn2[C@@H]1O[C@@H]2CO[P@@](=O)(OC(C)C)O[C@H]2[C@@]1(C)F [Comparative Example 3, (2S,4aR,6R,7R,7aR)-6-(2-amino-6-ethoxy-9H-purin-9-yl)-7-fluoro-2-isopropoxy-7-methyltetrahydro-4H-furo[3,2-d][1,3,2]dioxaphosphinine 2-oxide, reference compound] showed an EC50 [1] of over 25 µM.
COc1nc(N)nc2c1ncn2[C@@H]1O[C@H](CO[P@@](=O)(N[C@@H](C)C(=O)OC(C)C)Oc2ccccc2)[C@@H](O)[C@@]1(C)F [Comparative Example 4, (S)-isopropyl 2-(((S)-(((2R,3R,4R,5R)-5-(2-amino-6-methoxy-9H-purin-9-yl)-4-fluoro-3-hydroxy-4-methyltetrahydrofuran-2-yl)methoxy) (phenoxy)phosphoryl)amino)propanoate, reference compound] showed a half-life at 1 μM [2] of 18 min and a half-life [3] of 6 min.
CCOc1nc(N)nc2c1ncn2[C@@H]1O[C@@H]2CO[P@](=O)(NCC(=O)OC(C)C)O[C@H]2[C@@]1(C)F [Example 8, isopropyl 2-(((2R,4aR,6R,7R,7aR)-6-(2-amino-6-ethoxy-9H-purin-9-yl)-7-fluoro-7-methyl-2-oxidotetrahydro-4H-furo[3,2-d][1,3,2]dioxaphosphinin-2-yl)amino)acetate] showed a half-life at 1 μM ([2]; pooled liver S9 fraction) of 57.5 min, a CC50 at 96 h [4] of over 50 µM and an EC50 [1] of 0.33 µM. The CC50 at 96 h [5] was over 50 µM.
Compound CCOC(=O)[C@@H](N[P@]1(=O)OC[C@H]2O[C@@H](n3cnc4c(OCC)nc(N)nc43)[C@](C)(F)[C@@H]2O1)C(C)C [Example 11, (S)-ethyl 2-(((2S,4aR,6R,7R,7aR)-6-(2-amino-6-ethoxy-9H-purin-9-yl)-7-fluoro-7-methyl-2-oxidotetrahydro-4H-furo[3,2-d][1,3,2]dioxaphosphinin-2-yl)amino)-3-methylbutanoate] has a half-life at 1 μM ([2]; pooled liver S9 fraction) of 82 min, a CC50 at 96 h [4] of over 50 µM and an EC50 [1] of 0.23 µM. For the same compound, the CC50 at 96 h [5] was over 50 µM.
COC(=O)[C@H](C)N[P@@]1(=O)OC[C@H]2O[C@@H](n3cnc4c(OC(C)C)nc(N)nc43)[C@](C)(F)[C@@H]2O1 [Example 12, (S)-methyl 2-(((2R,4aR,6R,7R,7aR)-6-(2-amino-6-isopropoxy-9H-purin-9-yl)-7-fluoro-7-methyl-2-oxidotetrahydro-4H-furo[3,2-d][1,3,2]dioxaphosphinin-2-yl)amino)propanoate] gave a CC50 at 96 h [4] of over 50 µM, an EC50 [1] of 0.43 µM and a CC50 at 96 h [5] of over 50 µM.
In the case of CCCOc1nc(N)nc2c1ncn2[C@@H]1O[C@@H]2CO[P@](=O)(N[C@@H](C)C(=O)OC)O[C@H]2[C@@]1(C)F [Example 14, (S)-methyl 2-(((2R,4aR,6R,7R,7aR)-6-(2-amino-6-propoxy-9H-purin-9-yl)-7-fluoro-7-methyl-2-oxidotetrahydro-4H-furo[3,2-d][1,3,2]dioxaphosphinin-2-yl)amino)propanoate], the CC50 at 96 h [4] is reported as over 50 µM, the EC50 [1] is reported as 0.18 µM and the CC50 at 96 h [5] is reported as over 50 µM.
